The values below come from patent US8158372B2, “Agonists of a bitter taste receptor and uses thereof” (Deutsches Institut für Ernährungsforschung Potsdam-Rehbrücke, priority 2004, dated 2012).

Where a name gives a salt, the structure may show the parent alone. Read-outs that look alike come from different tables or passages of the source.

Assay [1] deals with T1, hTAS2R14 (Homo sapiens, UniProt Q9NYV8).
T1 sequence (Q9NYV8 1-317): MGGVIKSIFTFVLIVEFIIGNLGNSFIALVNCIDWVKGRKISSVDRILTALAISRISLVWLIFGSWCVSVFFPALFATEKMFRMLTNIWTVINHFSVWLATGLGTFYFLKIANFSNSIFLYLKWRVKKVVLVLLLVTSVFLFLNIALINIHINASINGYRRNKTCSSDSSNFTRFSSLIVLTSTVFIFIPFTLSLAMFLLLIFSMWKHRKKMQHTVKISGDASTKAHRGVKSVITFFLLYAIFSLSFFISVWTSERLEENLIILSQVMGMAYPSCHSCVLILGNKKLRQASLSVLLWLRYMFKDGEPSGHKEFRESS

The target in assay [2] is T2, hTAS2R4 (Homo sapiens, UniProt Q9NYW5).
T2 sequence (Q9NYW5 1-299): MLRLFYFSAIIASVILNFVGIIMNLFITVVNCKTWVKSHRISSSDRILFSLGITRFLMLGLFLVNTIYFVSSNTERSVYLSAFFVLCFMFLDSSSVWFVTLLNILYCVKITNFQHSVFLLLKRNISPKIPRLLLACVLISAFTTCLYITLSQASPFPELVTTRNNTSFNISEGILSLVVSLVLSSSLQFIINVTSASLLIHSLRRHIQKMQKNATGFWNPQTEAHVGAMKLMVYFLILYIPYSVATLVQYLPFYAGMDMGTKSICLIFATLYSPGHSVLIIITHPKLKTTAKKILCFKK
Particulars: denatonium at high doses; Chandrashekar et al. 2000; cited from earlier work.

In assay [3] the target is T3, rTAS2R9 (Rattus norvegicus, UniProt Q9JKT5).
T3 sequence (Q9JKT5 1-309): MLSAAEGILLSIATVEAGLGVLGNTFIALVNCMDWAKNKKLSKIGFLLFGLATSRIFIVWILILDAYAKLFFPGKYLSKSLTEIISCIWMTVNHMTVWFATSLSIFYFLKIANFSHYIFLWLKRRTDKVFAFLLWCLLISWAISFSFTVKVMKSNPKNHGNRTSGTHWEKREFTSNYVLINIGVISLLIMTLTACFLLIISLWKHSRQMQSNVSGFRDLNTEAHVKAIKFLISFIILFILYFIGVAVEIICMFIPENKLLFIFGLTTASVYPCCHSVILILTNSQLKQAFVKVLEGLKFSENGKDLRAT
Particulars: Bufe et al. 2002; cited from earlier work.

Assay [4] addresses T4, mTAS2R5 (Mus musculus, UniProt Q9JKT4).
T4 sequence (Q9JKT4 1-300): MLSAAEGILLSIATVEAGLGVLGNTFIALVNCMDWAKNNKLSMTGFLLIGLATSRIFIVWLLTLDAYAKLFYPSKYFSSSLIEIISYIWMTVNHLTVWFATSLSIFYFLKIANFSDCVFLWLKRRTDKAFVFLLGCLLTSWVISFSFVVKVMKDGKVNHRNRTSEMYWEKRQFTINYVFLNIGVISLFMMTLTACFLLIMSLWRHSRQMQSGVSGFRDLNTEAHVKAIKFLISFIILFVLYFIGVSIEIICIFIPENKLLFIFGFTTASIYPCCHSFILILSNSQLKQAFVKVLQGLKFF
Particulars: Chandrashekar et al. 2000; cited from earlier work.

The target of assay [5] is T5, mTAS2R8 (Mus musculus, UniProt Q9JKT3).
T5 sequence (Q9JKT3 1-297): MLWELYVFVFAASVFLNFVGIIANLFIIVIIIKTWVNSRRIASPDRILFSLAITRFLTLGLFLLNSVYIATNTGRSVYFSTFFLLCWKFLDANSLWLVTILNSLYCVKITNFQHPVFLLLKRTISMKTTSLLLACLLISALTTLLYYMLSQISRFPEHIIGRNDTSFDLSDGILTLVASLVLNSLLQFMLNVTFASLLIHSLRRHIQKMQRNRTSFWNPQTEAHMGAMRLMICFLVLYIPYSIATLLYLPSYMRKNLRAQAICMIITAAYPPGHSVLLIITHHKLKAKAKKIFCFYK
Particulars: denatonium at high doses; Chandrashekar et al. 2000; cited from earlier work.

Setting [6] is: increase of intracellular calcium (fluorescence) in hTAS2R14 transfected cells, traces only shown as drawings, Table 1 A.

Take `CN1CCCC1c1cccnc1` (single isomer, unassigned; (-)) [(−)-nicotine]: the response result in assay [1] (conc 10 μM) is “n.r”.
Regarding `C1CCN2C[C@H]3CC(CN4CCCC[C@@H]34)[C@H]2C1` (single isomer, unassigned; (-)) [(−)-sparteine], the response result in assay [1] is “n.r”.
On to `O=Cc1cccc2cccc(C(=O)O)c12` [1,8-naphthaldehydic acid], for which the “activation of hTAS2R14 (agonist)” value in assay [1] (setting [6]) was “agonist”.
With `O=C(O)c1cccc2ccccc12` [1-naphthoic acid], the “activation of hTAS2R14 (agonist)” value in assay [1] (setting [6]) was “agonist”.
As to `O=[N+]([O-])c1cccc2ccccc12` [1-nitronaphthalene], the “activation of hTAS2R14 (agonist)” value in assay [1] is “agonist”.
For the molecule `CCCc1cc(=O)[nH]c(=S)[nH]1` [6-propyl-2-thiouracil (PROP), 6-propyl-2-thiouracil], the response result in assay [1] (conc 100 μM) is recorded as “n.r”. The receptor response entry in assay [2] was “to a lesser extend”.
For `c1ccc2c(c1)CCc1ccccc1-2` [9,10-dihydrophenanthrene], the response result in assay [1] (conc 5 μM) is recorded as “n.r”.
For the molecule `N[C@H](Cc1ccccc1)C(=O)O` [D-phenylalanine], the response result in assay [1] (conc 10000 μM) was “n.r”.
For the molecule `N[C@@H](Cc1ccccc1)C(=O)O` [L-phenylalanine], the response entry in assay [1] (conc 10000 μM) is reported as “n.r”.
As to `CCN(CCCc1ccccc1)CCCc1ccccc1.O=C(O)CC(O)(CC(=O)O)C(=O)O` [alverine citrate salt], in assay [1] (conc 50 μM), the response entry is listed as “n.r”.
With `Cc1cc(=O)n(-c2ccccc2)n1C` [antipyrine], the response entry in assay [1] is listed as “n.r”.
The same measure, in the same setting: in the case of `CN1C2CCC1CC(OC(=O)C(CO)c1ccccc1)C2` (stereo not drawn) [atropine] it was “n.r”; in that of `O=C(c1ccccc1)C(O)c1ccccc1` (stereo not drawn) [benzoin], “n.r”.
Consider `O=C(O)/C=C/c1ccc(O)c(O)c1` [caffeic acid], for which, in assay [1] (conc 30 μM), the response result is given as “n.r”.
`Cn1c(=O)c2c(ncn2C)n(C)c1=O` [caffeine]: in assay [1] (conc 3000 μM), the response entry is “n.r”.
With `CCCC(C)(COC(N)=O)COC(=O)NC(C)C` (stereo not drawn) [carisoprodol], the response entry in assay [1] is reported as “n.r”.
For the molecule `O=C(N[C@H](CO)[C@H](O)c1ccc([N+](=O)[O-])cc1)C(Cl)Cl` [chloramphenicol], the response result in assay [1] (conc 30 μM) is given as “n.r”.
On to `COc1cc2c(c(OC)c1OC)-c1ccc(OC)c(=O)cc1[C@@H](NC(C)=O)CC2` [colchicine], for which the response entry in assay [1] is “n.r”.
Regarding `O=C([O-])c1cc(=O)c2c(OCC(O)COc3cccc4oc(C(=O)[O-])cc(=O)c34)cccc2o1.[Na+].[Na+]` [cromolyn sodium salt], the response entry in assay [1] (conc 5000 μM) is reported as “n.r”.
Turning to `C[C@@H]1C[C@@H]([C@H](O)CC2CC(=O)NC(=O)C2)C(=O)[C@@H](C)C1` [cycloheximide], the response entry in assay [1] is “n.r”. The receptor response entry in assay [3] and in assay [4] was “respond” each time.
For the molecule `CC[N+](CC)(CC(=O)Nc1c(C)cccc1C)Cc1ccccc1` [denatonium], the receptor response result in assay [2] and in assay [5] was “respond” each time.
For `CC(=O)OC1C[C@H]2[C@H](C)C(=O)O[C@@H]2/C=C(\C)CC/C=C/1C` (stereo partly drawn) [herbolide A], the “activation of hTAS2R14 (agonist)” value in assay [1] (setting [6]) is listed as “agonist”.
As to `C=C1C(OC(C)=O)CC/C(C)=C/[C@H]2OC(=O)[C@@H](C)[C@@H]2CC1OC(C)=O` (stereo partly drawn) [herbolide D acetate], the “activation of hTAS2R14 (agonist)” value in assay [1] (setting [6]) is reported as “agonist”.
Turning to `C=C1C(=O)OC2C3O[C@]3(C)CC/C=C(\C)CC(O)[C@@H]12` (stereo partly drawn) [hydroxy-8α-parthenolide], the “activation of hTAS2R14 (agonist)” value in assay [1] (setting [6]) is “agonist”.
As for `C=C1C(=O)O[C@H]2[C@H]1CC/C(C)=C/CC[C@@]1(C)O[C@@H]21` [parthenolide], in assay [1] (setting [6]), the “activation of hTAS2R14 (agonist)” value is given as “agonist”.
Regarding `NC(=S)Nc1ccccc1` [phenylthiocarbamide (PTC), phenylthiocarbamide], the response result in assay [1] was “n.r”.
With `CC(C)(O)[C@@H]1[C@H]2OC(=O)[C@@H]1[C@]1(O)C[C@H]3O[C@]34C(=O)O[C@H]2[C@]14C` [picrotin], in assay [1], the “activation of hTAS2R14 (agonist)” value was “agonist”.
For `C=C(C)[C@@H]1[C@H]2OC(=O)[C@@H]1[C@]1(O)C[C@H]3O[C@]34C(=O)O[C@H]2[C@]14C` [picrotoxinin], the “activation of hTAS2R14 (agonist)” value in assay [1] is reported as “agonist”.
In the case of `O=C(O)c1ccc2c(c1)OCO2` [piperonylic acid], the “activation of hTAS2R14 (agonist)” value in assay [1] is “agonist”.
Consider `CC1CCC2[C@@H]1C1CC(O)[C@H](C)C1CC[C@@]2(C)O` (stereo partly drawn) [pseudo-artabsine], for which the “activation of hTAS2R14 (agonist)” value in assay [1] (setting [6]) is given as “agonist”.
Regarding `C=C[C@H]1CN2CC[C@H]1C[C@H]2[C@H](O)c1ccnc2ccc(OC)cc12` [quinine sulfate dihydrate], the response entry in assay [1] (conc 50 μM) is given as “n.r”.
As for `O=C([O-])c1ccccc1.[Na+]` [sodium benzoate], in assay [1], the “activation of hTAS2R14 (agonist)” value is “agonist”.
On the same count and under the same terms, with (−)-α-thujone the entry was “agonist”.
As to ouabain, the response entry in assay [1] is reported as “n.r”.
Take strychnine nitrate: the response result in assay [1] is listed as “n.r”.
